Test results taken from US6017918A, “Phenyl glycine compounds and methods of treating atherosclerosis and restenosis” (Warner-Lambert Company, priority 1999, dated 2000).

Key:
[1] = test system: apolipoprotein(a), [apo(a)], apolipoproteinB-100, [apoB-100], coupling reaction that generates Lp(a); assay: LPABC screen: lipoprotein(a) biochemical coupling assay, Lp(a) by ELISA; conditions: recombinant apo(a) + HepG2 conditioned media, 67 minutes, 37° C.; ^a = multiple tests
Text: The lipoprotein(a), [Lp(a)], biochemical coupling assay (LPABC) is used to characterize inhibitors of the apolipoprotein(a), [apo(a)], apolipoproteinB-100, [apoB-100], coupling reaction that generates Lp(a).
Protocol Conditioned media from 293 cells (ATCC CRL-1573), permanently transfected with an apo(a) 17-kringle cDNA expression construct (pcDNA-AMP, In Vitrogen, Carlsbad, Calif.) using standard molecular biology techniques, was used as a source of recombinant apo(a). The 293 cell conditioned media containing the recombinant apo(a) is diluted 1:3 with phosphate buffered saline (PBS) and 90 μL is pipetted into each well of a 96-well plate and placed into a 37° C. incubator for 10 minutes. Twenty microliters of a 0.3 to 50 μM solution of a compound of the present invention in PBS is added to the warmed plate. Ninety microliters of HepG2 (ATCC HB-8065) cell conditioned media diluted 1:3 with PBS is added to the apo(a)/compound mixture and mixed by pipetting up and down 5 times. The reaction is incubated for 67 minutes in a 37° C. incubator. A 100 μL aliquot of the reaction is removed and assayed for its Lp(a) content by an enzyme linked immunosorbent assay (ELISA).

[2] = test system: Lp(a) production (HepG2^K17 cells); assay: LPA3 screen: inhibition of Lp(a) production in HepG2^K17 cells, Lp(a) by ELISA; assay type: cell-based; conditions: 8 h, Lp(a) normalized for total protein, ^a = multiple tests
Protocol: The LPA3 screen is used to identify compounds that inhibit Lp(a) production. This screen employs permanently transfected HepG2 cells (HepG2^K17) that are generated using an apo(a) 17-kringle cDNA expression construct (pcDNA-AMP, In Vitrogen, Carlsbad, Calif.) in accordance with methods that are well-known in molecular biology.
HepG2^K17 cells are seeded in 96-well plates at a density of 75,000 cells per well in 0.25 mL of Dulbecco's Modified Eagle Media (DMEM) containing 10% fetal bovine serum (FBS). Seeded plates are incubated overnight in a 37° C., 5% CO2 /95% […] incubator. The media is removed, replaced with (1) fresh media, or (2) fresh media plus 0.3 to 50 μM of a compound of the present invention in 20 μL of PBS, and the plates returned to the incubator for 8 hours. After the additional 8 hours of incubation, Lp(a) is assayed in the media by ELISA. Cells are digested with 0.5N NaOH overnight and assayed for total protein. Lp(a) values are normalized for total protein content.

Compound	IC50 [1] [µM]	IC50 [2] [µM]
CCOC(=O)C(NCc1ccccc1F)c1cc(C(C)(C)C)c(O)c(C(C)(C)C)c1 (stereo not shown) [Example 40, (3,5-Di-tert-butyl-4-hydroxy-phenyl)-(2-fluoro-benzylamino]-acetic acid ethyl ester]	50.2	> 74
CCOC(=O)C(NCc1cccc(O)c1)c1cc(C(C)(C)C)c(O)c(C(C)(C)C)c1 (stereo not shown) [Example 42, (3,5-Di-tert-butyl-4-hydroxy-phenyl)-(3-hydroxy-benzylamino)-acetic acid ethyl ester]	68.4	> 74
CCOC(=O)C(NCc1ccccc1OC)c1cc(C(C)(C)C)c(O)c(C(C)(C)C)c1 (stereo not shown) [Example 44, (3,5-Di-tert-butyl-4-hydroxy-phenyl)-(2-methoxy-benzylamino)-acetic acid ethyl ester]	54.3	> 74
CCOC(=O)C(NCc1ccc([N+](=O)[O-])cc1)c1cc(C(C)(C)C)c(O)c(C(C)(C)C)c1 (stereo not shown) [Example 45, (3,5-Di-tert-butyl-4-hydroxy-phenyl)-(4-nitro-benzylamino)-acetic acid ethyl ester]	96.8	> 74
CCOC(=O)C(NCc1ccsc1)c1cc(C(C)(C)C)c(O)c(C(C)(C)C)c1 (stereo not shown) [Example 46, (3,5-Di-tert-butyl-4-hydroxy-phenyl)-[(thiophen-3-ylmethyl)-amino]-acetic acid ethyl ester]	34.5	> 74
CCOC(=O)C(NCc1ccccc1C(F)(F)F)c1cc(C(C)(C)C)c(O)c(C(C)(C)C)c1 (stereo not shown) [Example 47, (3,5-Di-tert-butyl-4-hydroxy-phenyl)-(2-trifluoromethyl-benzylamino)-acetic acid ethyl ester]	33.4	> 74
CCOC(=O)C(NCc1cccc(C(F)(F)F)c1)c1cc(C(C)(C)C)c(O)c(C(C)(C)C)c1 (stereo not shown) [Example 48, (3,5-Di-tert-butyl-4-hydroxy-phenyl)-(3-trifluoromethyl-benzylamino)-acetic acid ethyl ester]	53.9	> 74
CCOC(=O)C(NCc1ccc(O)c(OC)c1)c1cc(C(C)(C)C)c(O)c(C(C)(C)C)c1 (stereo not shown) [Example 49, (3,5-Di-tert-butyl-4-hydroxy-phenyl)-(4-hydroxy-3-methoxy-benzylamino)-acetic acid ethyl ester]	15	> 74
CCOC(=O)C(NCc1cccc([N+](=O)[O-])c1)c1cc(C(C)(C)C)c(O)c(C(C)(C)C)c1 (stereo not shown) [Example 50, (3,5-Di-tert-butyl-4-hydroxy-phenyl)-(3-nitro-benzylamino)-acetic acid ethyl ester]	46.7	> 74
CCOC(=O)C(c1cc(C(C)(C)C)c(O)c(C(C)(C)C)c1)N1CCCC1 (stereo not shown) [Example 52, (3,5-Di-tert-butyl-4-hydroxy-phenyl)-(N-pyrollidinyl)-acetic acid ethyl ester]	1.55	2.7
CCOC(=O)C(c1cc(C(C)(C)C)c(O)c(C(C)(C)C)c1)N1CCOCC1 (stereo not shown) [Example 54, (3,5-Di-tert-butyl-4-hydroxy-phenyl)-(N-morpholinyl)-acetic acid ethyl ester]	0.8	1.3
